According to ChEMBL document CHEMBL5370591, “A Potent and Narrow-Spectrum Antibacterial against Clostridioides difficile Infection” (J Med Chem, 2023):
In brackets after ≈: the same amount, converted by molar mass.

Key:
[1] = system: Staphylococcus epidermidis; experiment: Antibacterial activity against Staphylococcus epidermidis ATCC 35547 assessed as inhibition of bacterial growth by broth microdilution method; type: functional
Clostridioides difficile [2] = experiment: Antibacterial activity against Clostridium difficile ATCC 43255 assessed as inhibition of bacterial growth by broth microdilution method; type: functional
Clostridioides difficile [3] = experiment: Antibacterial activity against Clostridium difficile NR49305 assessed as inhibition of bacterial growth by broth microdilution method; type: functional
Staphylococcus aureus [4] = experiment: Antibacterial activity against vancomycin-resistant Staphylococcus aureus clinical isolate 2 assessed as inhibition of bacterial growth by broth microdilution method; type: functional
Corynebacterium sp. = experiment: Antibacterial activity against Corynebacterium sp. HM-784 assessed as inhibition of bacterial growth by broth microdilution method; type: functional
[5] = system: Limosilactobacillus reuteri; experiment: Antibacterial activity against Lactobacillus reuteri HM-102 assessed as inhibition of bacterial growth by broth microdilution method; type: functional
Enterococcus faecalis [6] = experiment: Antibacterial activity against Enterococcus faecalis ATCC 29212 assessed as inhibition of bacterial growth by broth microdilution method; type: functional
Enterococcus faecium [7] = experiment: Antibacterial activity against vancomycin susceptible Enterococcus faecium119-39A assessed as inhibition of bacterial growth by broth microdilution method; type: functional; conditions: 119-39A
[8] = Selectivity ratio of IC50 for human THP-1 cells to MIC for Clostridium difficile ATCC 43255; type: toxicity
Clostridioides difficile [9] = experiment: Antibacterial activity against Clostridium difficile BAA-1803 assessed as inhibition of bacterial growth by broth microdilution method; type: functional
Staphylococcus aureus [10] = experiment: Antibacterial activity against Staphylococcus aureus NRS119 assessed as inhibition of bacterial growth by broth microdilution method; type: functional
Streptococcus pyogenes = experiment: Antibacterial activity against Streptococcus pyogenes ATCC 49399 assessed as inhibition of bacterial growth by broth microdilution method; type: functional
Acinetobacter baumannii = experiment: Antibacterial activity against Acinetobacter baumannii ATCC17961 assessed as inhibition of bacterial growth by broth microdilution method; type: functional
Staphylococcus aureus [11] = experiment: Antibacterial activity against Staphylococcus aureus ATCC 29213 assessed as inhibition of bacterial growth by broth microdilution method; type: functional
Bacillus licheniformis = experiment: Antibacterial activity against Bacillus licheniformis ATCC 12759 assessed as inhibition of bacterial growth by broth microdilution method; type: functional
Enterococcus faecium [12] = experiment: Antibacterial activity against vancomycin resistant Enterococcus faecium 106 assessed as inhibition of bacterial growth by broth microdilution method; type: functional
Klebsiella pneumoniae = experiment: Antibacterial activity against Klebsiella pneumoniae ATCC700603 assessed as inhibition of bacterial growth by broth microdilution method; type: functional
Staphylococcus aureus [13] = experiment: Antibacterial activity against Staphylococcus aureus NRS100 assessed as inhibition of bacterial growth by broth microdilution method; type: functional
Enterococcus faecalis [14] = experiment: Antibacterial activity against vancomycin susceptible Enterococcus faecalis 201 assessed as inhibition of bacterial growth by broth microdilution method; type: functional
Staphylococcus aureus [15] = experiment: Antibacterial activity against vancomycin-resistant Staphylococcus aureus clinical isolate 1 assessed as inhibition of bacterial growth by broth microdilution method; type: functional
THP-1 = experiment: Cytotoxicity against human THP-1 cells assessed as increase in LDH release incubate for 24 hrs by trypan-blue staining based analysis; type: functional, cell-based; conditions: THP-1, 24 h
Enterococcus faecium [16] = experiment: Antibacterial activity against Enterococcus faecium NCTC 7171 assessed as inhibition of bacterial growth by broth microdilution method; type: functional
Escherichia coli = experiment: Antibacterial activity against Escherichia coli ATCC25922 assessed as inhibition of bacterial growth by broth microdilution method; type: functional
Bacteroides fragilis = experiment: Antibacterial activity against Bacteroides fragilis HM-709 assessed as inhibition of bacterial growth by broth microdilution method; type: functional
Clostridioides difficile [17] = experiment: Antibacterial activity against Clostridium difficile 24531 assessed as inhibition of bacterial growth by broth microdilution method; type: functional
Streptococcus oralis = experiment: Antibacterial activity against Streptococcus oralis ATCC 9811 assessed as inhibition of bacterial growth by broth microdilution method; type: functional
Clostridioides difficile [18] = experiment: Antibacterial activity against Clostridium difficile NR49302 assessed as inhibition of bacterial growth by broth microdilution method; type: functional
Clostridioides difficile [19] = experiment: Antibacterial activity against Clostridium difficile NR49294 assessed as inhibition of bacterial growth by broth microdilution method; type: functional
Pseudomonas aeruginosa = experiment: Antibacterial activity against Pseudomonas aeruginosa ATCC27853 assessed as inhibition of bacterial growth by broth microdilution method; type: functional
Bifidobacterium longum = experiment: Antibacterial activity against Bifidobacterium longum HM-846 assessed as inhibition of bacterial growth by broth microdilution method; type: functional
Clostridioides difficile [20] = experiment: Antibacterial activity against Clostridium difficile NR49292 assessed as inhibition of bacterial growth by broth microdilution method; type: functional
Eubacterium sp. = experiment: Antibacterial activity against Eubacterium sp. HM-178 assessed as inhibition of bacterial growth by broth microdilution method; type: functional
Klebsiella aerogenes = experiment: Antibacterial activity against Klebsiella aerogenes ATCC35029 assessed as inhibition of bacterial growth by broth microdilution method; type: functional
Staphylococcus aureus [21] = experiment: Antibacterial activity against Staphylococcus aureus ATCC 27660 assessed as inhibition of bacterial growth by broth microdilution method; type: functional
Clostridioides difficile [22] = experiment: Antibacterial activity against Clostridium difficile NR49318 assessed as inhibition of bacterial growth by broth microdilution method; type: functional
Clostridioides difficile [23] = experiment: Antibacterial activity against Clostridium difficile NR49310 assessed as inhibition of bacterial growth by broth microdilution method; type: functional
Clostridioides difficile [24] = experiment: Antibacterial activity against Clostridium difficile BAA-1870 assessed as inhibition of bacterial growth by broth microdilution method; type: functional
Bacillus cereus = experiment: Antibacterial activity against Bacillus cereus ATCC 13061 assessed as inhibition of bacterial growth by broth microdilution method; type: functional
[25] = system: Staphylococcus haemolyticus; experiment: Antibacterial activity against Staphylococcus haemolyticus ATCC 29970 assessed as inhibition of bacterial growth by broth microdilution method; type: functional
Fusobacterium nucleatum = experiment: Antibacterial activity against Fusobacterium nucleatum HM-992 assessed as inhibition of bacterial growth by broth microdilution method; type: functional
Staphylococcus aureus [26] = experiment: Antibacterial activity against Staphylococcus aureus NRS120 assessed as inhibition of bacterial growth by broth microdilution method; type: functional
Lactobacillus gasseri = experiment: Antibacterial activity against Lactobacillus gasseri HM-644 assessed as inhibition of bacterial growth by broth microdilution method; type: functional
Clostridioides difficile [27] = experiment: Antibacterial activity against Clostridium difficile 26675 assessed as inhibition of bacterial growth by broth microdilution method; type: functional
Veillonella = experiment: Antibacterial activity against Veillonella HM-49 assessed as inhibition of bacterial growth by broth microdilution method; type: functional
Enterococcus faecalis [28] = experiment: Antibacterial activity against vancomycin resistant Enterococcus faecalis 99 assessed as inhibition of bacterial growth by broth microdilution method; type: functional
Clostridioides difficile [29] = experiment: Antibacterial activity against Clostridium difficile 23828 assessed as inhibition of bacterial growth by broth microdilution method; type: functional

FC(F)(F)c1ccc(Oc2ccc(-c3noc(-c4ccc5[nH]ccc5c4)n3)cc2)cc1
MIC [1]: 2 µg/mL (≈ 4.75 µM)
MIC (Clostridioides difficile [2]): 2 µg/mL (≈ 4.75 µM)
MIC (Clostridioides difficile [3]): 4 µg/mL (≈ 9.49 µM)
MIC (Staphylococcus aureus [4]): 2 µg/mL (≈ 4.75 µM)
MIC (Corynebacterium sp.): 2 µg/mL (≈ 4.75 µM)
MIC [5]: > 128 µg/mL
MIC (Enterococcus faecalis [6]): 8 µg/mL (≈ 19 µM)
MIC (Enterococcus faecium [7]): 1 µg/mL (≈ 2.37 µM)
selectivity ratio [8]: 17
MIC (Clostridioides difficile [9]): 2 µg/mL (≈ 4.75 µM)
MIC (Staphylococcus aureus [10]): 2 µg/mL (≈ 4.75 µM)
MIC (Streptococcus pyogenes): 64 µg/mL (≈ 152 µM)
MIC (Acinetobacter baumannii): > 128 µg/mL
MIC (Staphylococcus aureus [11]): 4 µg/mL (≈ 9.49 µM)
MIC (Bacillus licheniformis): 8 µg/mL (≈ 19 µM)
MIC (Enterococcus faecium [12]): 2 µg/mL (≈ 4.75 µM)
MIC (Klebsiella pneumoniae): > 128 µg/mL
MIC (Staphylococcus aureus [13]): 2 µg/mL (≈ 4.75 µM)
MIC (Enterococcus faecalis [14]): 4 µg/mL (≈ 9.49 µM)
MIC (Staphylococcus aureus [15]): 2 µg/mL (≈ 4.75 µM)
IC50 (THP-1): 69 µg/mL (≈ 164 µM)
MIC (Enterococcus faecium [16]): 2 µg/mL (≈ 4.75 µM)
MIC (Escherichia coli): > 128 µg/mL
MIC (Bacteroides fragilis): 4 µg/mL (≈ 9.49 µM)
MIC (Clostridioides difficile [17]): 4 µg/mL (≈ 9.49 µM)
MIC (Streptococcus oralis): 128 µg/mL (≈ 304 µM)
MIC (Clostridioides difficile [18]): 2 µg/mL (≈ 4.75 µM)
MIC (Clostridioides difficile [19]): 1 µg/mL (≈ 2.37 µM)
MIC (Pseudomonas aeruginosa): > 128 µg/mL
MIC (Bifidobacterium longum): 0.25 µg/mL (≈ 0.593 µM)
MIC (Clostridioides difficile [20]): 2 µg/mL (≈ 4.75 µM)
MIC (Eubacterium sp.): 2 µg/mL (≈ 4.75 µM)
MIC (Klebsiella aerogenes): > 128 µg/mL
MIC (Staphylococcus aureus [21]): 4 µg/mL (≈ 9.49 µM)
MIC (Clostridioides difficile [22]): 2 µg/mL (≈ 4.75 µM)
MIC (Clostridioides difficile [23]): 2 µg/mL (≈ 4.75 µM)
MIC (Clostridioides difficile [24]): 4 µg/mL (≈ 9.49 µM)
MIC (Bacillus cereus): 16 µg/mL (≈ 38 µM)
MIC [25]: 8 µg/mL (≈ 19 µM)
MIC (Fusobacterium nucleatum): 1 µg/mL (≈ 2.37 µM)
MIC (Staphylococcus aureus [26]): 2 µg/mL (≈ 4.75 µM)
MIC (Lactobacillus gasseri): > 128 µg/mL
MIC (Clostridioides difficile [27]): 4 µg/mL (≈ 9.49 µM)
MIC (Veillonella): > 128 µg/mL
MIC (Enterococcus faecalis [28]): 4 µg/mL (≈ 9.49 µM)

CCc1c(Cl)c(O)c(Cl)c(O)c1C(=O)O[C@H]1[C@H](O)[C@H](OC)[C@H](OC/C2=C\C=C\C[C@H](O)/C(C)=C/[C@H](CC)[C@@H](O[C@@H]3OC(C)(C)[C@@H](OC(=O)C(C)C)[C@H](O)[C@@H]3O)/C(C)=C/C(C)=C/C[C@@H]([C@@H](C)O)OC2=O)O[C@@H]1C [FIDAXOMICIN]
MIC (Clostridioides difficile [2]): 0.06 µg/mL (≈ 0.0567 µM)
MIC (Clostridioides difficile [3]): 0.01 µg/mL (≈ 0.00945 µM)
MIC (Corynebacterium sp.): < 0.06 µg/mL
MIC [5]: > 32 µg/mL
MIC (Enterococcus faecium [7]): > 16 µg/mL
MIC (Clostridioides difficile [9]): 1 µg/mL (≈ 0.945 µM)
MIC (Acinetobacter baumannii): > 128 µg/mL
MIC (Enterococcus faecium [12]): > 16 µg/mL
MIC (Klebsiella pneumoniae): > 128 µg/mL
MIC (Staphylococcus aureus [15]): 64 µg/mL (≈ 60.5 µM)
MIC (Escherichia coli): > 128 µg/mL
MIC (Bacteroides fragilis): > 32 µg/mL
MIC (Clostridioides difficile [17]): 0.01 µg/mL (≈ 0.00945 µM)
MIC (Streptococcus oralis): 32 µg/mL (≈ 30.2 µM)
MIC (Clostridioides difficile [18]): 0.03 µg/mL (≈ 0.0284 µM)
MIC (Clostridioides difficile [19]): 0.01 µg/mL (≈ 0.00945 µM)
MIC (Pseudomonas aeruginosa): > 128 µg/mL
MIC (Bifidobacterium longum): < 0.01 µg/mL
MIC (Clostridioides difficile [20]): 0.5 µg/mL (≈ 0.473 µM)
MIC (Eubacterium sp.): 16 µg/mL (≈ 15.1 µM)
MIC (Klebsiella aerogenes): > 128 µg/mL
MIC (Clostridioides difficile [22]): 0.125 µg/mL (≈ 0.118 µM)
MIC (Clostridioides difficile [23]): ≤ 0.01 µg/mL
MIC (Clostridioides difficile [24]): 0.25 µg/mL (≈ 0.236 µM)
MIC (Clostridioides difficile [29]): > 8 µg/mL
MIC [25]: 16 µg/mL (≈ 15.1 µM)
MIC (Fusobacterium nucleatum): < 0.06 µg/mL
MIC (Lactobacillus gasseri): 2 µg/mL (≈ 1.89 µM)
MIC (Clostridioides difficile [27]): 4 µg/mL (≈ 3.78 µM)
MIC (Veillonella): 8 µg/mL (≈ 7.56 µM)
